Reference: ChEMBL document CHEMBL3822390, “Synthesis, characterization and anti-cancer activity of a peptide nucleolipid bioconjugate” (2016)

Experiments:
Format in all cases: functional
[1] = tested on: A549; experiment: Cytotoxicity against human A549 cells assessed as cell growth at 10 uM after 48 hrs by SRB assay; details: A549, 48 h, read-out: Activity
[2] = tested on: U-251; experiment: Cytotoxicity against human U251 cells assessed as cell growth at 10 uM after 48 hrs by SRB assay; details: U-251, 48 h, read-out: Activity
[3] = tested on: MDA-MB-435; experiment: Cytotoxicity against human MDA-MB-435 cells assessed as cell growth at 10 uM after 48 hrs by SRB assay; details: MDA-MB-435, 48 h, read-out: Activity
[4] = Cytotoxicity against human COLO205 cells assessed as cell growth at 10 uM after 48 hrs by SRB assay; details: COLO 205, 48 h, read-out: Activity
[5] = Cytotoxicity against human SKOV3 cells assessed as cell growth at 10 uM after 48 hrs by SRB assay; details: SK-OV-3, 48 h, read-out: Activity
[6] = Cytotoxicity against human SW620 cells assessed as cell growth at 10 uM after 48 hrs by SRB assay; details: SW-620, 48 h, read-out: Activity
[7] = Cytotoxicity against human Caki1 cells assessed as cell growth at 10 uM after 48 hrs by SRB assay; details: CAKI-1, 48 h, read-out: Activity
[8] = tested on: NCI-H522; experiment: Cytotoxicity against human NCI-H522 cells assessed as cell mortality at 10 uM after 48 hrs by SRB assay; details: NCI-H522, 48 h
[9] = Cytotoxicity against human UO31 cells assessed as cell growth at 10 uM after 48 hrs by SRB assay; details: UO-31, 48 h, read-out: Activity
[10] = tested on: NCI-H226; experiment: Cytotoxicity against human NCI-H226 cells assessed as cell growth at 10 uM after 48 hrs by SRB assay; details: NCI-H226, 48 h, read-out: Activity
[11] = Cytotoxicity against human UACC257 cells assessed as cell growth at 7.25 uM after 48 hrs by SRB assay; details: UACC-257, 48 h, read-out: Activity
[12] = tested on: EKVX; experiment: Cytotoxicity against human EKVX cells assessed as cell growth at 7.25 uM after 48 hrs by SRB assay; details: read-out: Activity
[13] = tested on: T47D; experiment: Cytotoxicity against human T47D cells assessed as cell growth at 7.25 uM after 48 hrs by SRB assay; details: read-out: Activity
[14] = Cytotoxicity against human OVCAR3 cells assessed as cell growth at 7.25 uM after 48 hrs by SRB assay; details: OVCAR-3, 48 h, read-out: Activity
[15] = Cytotoxicity against human Hs 578T cells assessed as cell growth at 7.25 uM after 48 hrs by SRB assay; details: read-out: Activity
[16] = Cytotoxicity against human OVCAR8 cells assessed as cell growth at 7.25 uM after 48 hrs by SRB assay; details: OVCAR-8, 48 h, read-out: Activity
[17] = tested on: SN12C; experiment: Cytotoxicity against human SN12C cells assessed as cell growth at 7.25 uM after 48 hrs by SRB assay; details: read-out: Activity
[18] = Cytotoxicity against human HCT116 cells assessed as cell growth at 7.25 uM after 48 hrs by SRB assay; details: HCT-116, 48 h, read-out: Activity
[19] = tested on: NCI-H522; experiment: Cytotoxicity against human NCI-H522 cells assessed as cell mortality at 7.25 uM after 48 hrs by SRB assay; details: NCI-H522, 48 h
[20] = tested on: K562; experiment: Cytotoxicity against human K562 cells assessed as cell growth at 7.25 uM after 48 hrs by SRB assay; details: K562, 48 h, read-out: Activity
[21] = tested on: NCI-H23; experiment: Cytotoxicity against human NCI-H23 cells assessed as cell growth at 7.25 uM after 48 hrs by SRB assay; details: NCI-H23, 48 h, read-out: Activity
[22] = Cytotoxicity against human PC3 cells assessed as cell growth at 7.25 uM after 48 hrs by SRB assay; details: PC-3, 48 h, read-out: Activity
[23] = Cytotoxicity against human OVCAR4 cells assessed as cell growth at 7.25 uM after 48 hrs by SRB assay; details: OVCAR-4, 48 h, read-out: Activity
[24] = Cytotoxicity against human HCT15 cells assessed as cell growth at 2.13 uM after 48 hrs by SRB assay; details: HCT-15, 48 h, read-out: Activity
[25] = tested on: NCI-H226; experiment: Cytotoxicity against human NCI-H226 cells assessed as cell mortality at 2.13 uM after 48 hrs by SRB assay; details: NCI-H226, 48 h
[26] = tested on: MDA-MB-468; experiment: Cytotoxicity against human MDA-MB-468 cells assessed as cell growth at 2.13 uM after 48 hrs by SRB assay; details: MDA-MB-468, 48 h, read-out: Activity
[27] = Cytotoxicity against human Hs 578T cells assessed as cell growth at 2.13 uM after 48 hrs by SRB assay; details: read-out: Activity
[28] = Cytotoxicity against human NCI-ADR-RES cells assessed as cell growth at 2.13 uM after 48 hrs by SRB assay; details: read-out: Activity
[29] = tested on: SR; experiment: Cytotoxicity against human SR cells assessed as cell growth at 2.13 uM after 48 hrs by SRB assay; details: read-out: Activity
[30] = tested on: SK-MEL-5; experiment: Cytotoxicity against human SK-MEL-5 cells assessed as cell growth at 2.13 uM after 48 hrs by SRB assay; details: SK-MEL-5, 48 h, read-out: Activity
[31] = Cytotoxicity against human OVCAR4 cells assessed as cell growth at 2.13 uM after 48 hrs by SRB assay; details: OVCAR-4, 48 h, read-out: Activity
[32] = tested on: NCI-H226; experiment: Cytotoxicity against human NCI-H226 cells assessed as cell growth at 2.13 uM after 48 hrs by SRB assay; details: NCI-H226, 48 h, read-out: Activity
[33] = Cytotoxicity against human RXF393 cells assessed as cell growth at 2.13 uM after 48 hrs by SRB assay; details: RXF 393, 48 h, read-out: Activity
[34] = Cytotoxicity against human UACC62 cells assessed as cell growth at 2.13 uM after 48 hrs by SRB assay; details: UACC-62, 48 h, read-out: Activity
[35] = tested on: MDA-MB-435; experiment: Cytotoxicity against human MDA-MB-435 cells assessed as cell growth at 2.13 uM after 48 hrs by SRB assay; details: MDA-MB-435, 48 h, read-out: Activity
[36] = Cytotoxicity against human IGROV1 cells assessed as cell growth at 2.13 uM after 48 hrs by SRB assay; details: IGROV-1, 48 h, read-out: Activity
[37] = Cytotoxicity against human BT549 cells assessed as cell growth at 2.13 uM after 48 hrs by SRB assay; details: BT-549, 48 h, read-out: Activity
[38] = tested on: KM12; experiment: Cytotoxicity against human KM12 cells assessed as cell growth at 2.13 uM after 48 hrs by SRB assay; details: KM12, 48 h, read-out: Activity
[39] = Cytotoxicity against human HOP62 cells assessed as cell growth at 2.13 uM after 48 hrs by SRB assay; details: HOP-62, 48 h, read-out: Activity
[40] = Cytotoxicity against human SF295 cells assessed as cell growth at 2.13 uM after 48 hrs by SRB assay; details: SF-295, 48 h, read-out: Activity

CC(C)C[C@H](NC(=O)[C@H](CCCCN)NC(=O)[C@H](C)NC(=O)[C@H](CC(C)C)NC(=O)[C@H](CCCCN)NC(=O)[C@H](CCCCN)NC(=O)[C@H](C)NC(=O)[C@H](CC(C)C)NC(=O)[C@H](CCCCN)NC(=O)[C@H](C)NC(=O)[C@H](CC(C)C)NC(=O)[C@H](CCCCN)NC(=O)[C@@H](N)CC(=O)O)C(=O)N[C@@H](C)C(=O)N[C@@H](CCCCN)C(=O)N[C@@H](C)C(=O)N[C@@H](CCCCN)C(N)=O
growth at 10 µM [1]: 81% | growth at 10 µM [2]: 94.6% | growth at 10 µM [3]: 108% | growth at 10 µM [4]: 114% | growth at 10 µM [5]: 98.7% | growth at 10 µM [6]: 106% | growth at 10 µM [7]: 99.4% | mortality at 10 µM [8]: 14% | growth at 10 µM [9]: 98% | growth at 10 µM [10]: 99.1%

CCCCCCCCCCCCCCCC(=O)NCCCC[C@H](NC(=O)[C@H](C)NC(=O)[C@H](CCCCN)NC(=O)[C@H](C)NC(=O)[C@H](CC(C)C)NC(=O)[C@H](CCCCN)NC(=O)[C@H](C)NC(=O)[C@H](CC(C)C)NC(=O)[C@H](CCCCN)NC(=O)[C@H](CCCCN)NC(=O)[C@H](C)NC(=O)[C@H](CC(C)C)NC(=O)[C@H](CCCCN)NC(=O)[C@H](C)NC(=O)[C@H](CC(C)C)NC(=O)[C@H](CCCCN)NC(=O)[C@@H](N)CC(=O)O)C(N)=O
growth at 7.25 µM [11]: 73.1% | growth at 7.25 µM [12]: 105% | growth at 7.25 µM [13]: 99% | growth at 7.25 µM [14]: 122% | growth at 7.25 µM [15]: 101% | growth at 7.25 µM [16]: 96.4% | growth at 7.25 µM [17]: 104% | growth at 7.25 µM [18]: 92.3% | mortality at 7.25 µM [19]: 16% | growth at 7.25 µM [20]: 102% | growth at 7.25 µM [21]: 104% | growth at 7.25 µM [22]: 91.2% | growth at 7.25 µM [23]: 116%

CCCCCCCCCCCCCCCCNCCO[C@H]1C[C@H](n2cc(C)c(=O)[nH]c2=O)O[C@@H]1C(=O)NCCCC[C@H](NC(=O)[C@H](C)NC(=O)[C@H](CCCCN)NC(=O)[C@H](C)NC(=O)[C@H](CC(C)C)NC(=O)[C@H](CCCCN)NC(=O)[C@H](C)NC(=O)[C@H](CC(C)C)NC(=O)[C@H](CCCCN)NC(=O)[C@H](CCCCN)NC(=O)[C@H](C)NC(=O)[C@H](CC(C)C)NC(=O)[C@H](CCCCN)NC(=O)[C@H](C)NC(=O)[C@H](CC(C)C)NC(=O)[C@H](CCCCN)NC(=O)[C@@H](N)CC(=O)O)C(N)=O
growth at 2.13 µM [24]: 104% | mortality at 2.13 µM [25]: 4% | growth at 2.13 µM [26]: 100% | growth at 2.13 µM [27]: 101% | growth at 2.13 µM [28]: 109% | growth at 2.13 µM [29]: 96.6% | growth at 2.13 µM [30]: 105% | growth at 2.13 µM [31]: 112% | growth at 2.13 µM [32]: 96.5% | growth at 2.13 µM [33]: 113% | growth at 2.13 µM [34]: 104% | growth at 2.13 µM [35]: 109% | growth at 2.13 µM [36]: 107% | growth at 2.13 µM [37]: 113% | growth at 2.13 µM [38]: 103% | growth at 2.13 µM [39]: 99.4% | growth at 2.13 µM [40]: 97.7%
